Data on twelve molecules can be found in patent US6615842B1, “Methods for removing nucleophilic toxins from tobacco smoke” (Cerami Consulting Corp., priority 1998, dated 2003).

The assay in a line: Removal of tar from tobacco smoke measured colorimetrically. To be noted: 250 mg portions of compound as filter; smoke from one cigarette drawn through 3 ml water; read at 405 nm; compared with control cigarette.
Method: The smoke from one cigarette was drawn through the filter material and then through 3 mls of distilled water using a water-pipe smoking device which was constructed from a 25 ml glass Erlenmeyer flask attached to a vacuum source with an air flow rate of approximately 35 ml/min. Three 100 microliter aliquots were removed from each flask, placed into ELISA plate wells and read in an ELISA plate reader at 405 nm. The percentage or tar removed is based on a comparison between the cigarette comprising the filter containing the test agent and an appropriate control cigarette.
The smoke from 1 of each type of filter cigarette was then drawn through 3 mls of distilled water using a water-pipe smoking device which was constructed from a small (25 ml) glass Erlenmeyer flask attached to a vacuum source with an air flow rate of approximately 35 ml/min. Three 100 microliter aliquots were removed from each flask, placed into ELISA plated wells and read in an ELISA plate reader at 405 nm.
Turning to `O=Cc1ccccc1C=O` [O-phthaldialdehyde], the “% TAR REMOVAL” value came out at 84%.
Next, `O=C1OC(=O)C2C3C=CC(C12)C1C(=O)OC(=O)C31` (stereo not drawn) [Bicyclo(2,2,2)oct-7-ene-2,3,5,6-tetracarboxylic dianhydride]: 98.2%; `O=C1CN(CCN2CC(=O)OC(=O)C2)CC(=O)O1` [Ethylenediaminetetraacetic dianhydride]: 98.2%; `O=C1c2ccccc2C(=O)C1(O)O` [Ninhydrin]: 83%.
Under `CC1(C)CC(=O)CC(=O)C1` [(5,5-dimethyl-1,3-cyclohexanedione, 5,5-dimethyl-1,3-cyclohexanedione] stands 26%; under `C[C@H](NC(=O)OC(C)(C)C)C(=O)ON1C(=O)CCC1=O` [N-α-t-BOC-L-alanine-N-hydroxysuccinimide ester], 25%.
Under `CC(C)(C)OC(=O)NCCCCCC(=O)ON1C(=O)CCC1=O` [BOC-ε-aminocaproic acid-N-hydroxysuccinimide ester] stands 74%; under `CC(C)(C)OC(=O)N[C@@H](CCC(=O)ON1C(=O)CCC1=O)C(=O)OCc1ccccc1` [N-α-t-BOC-L-glutamic-α-benzyl ester-γ-N-hydroxysuccinimide ester], 96.7%.
Take `O=CC(=O)c1ccccc1` [Phenylglyoxal]: the “% TAR REMOVAL” value is on record as 53%.
Under `O=C1c2ccccc2C(=O)C1(O)C1(O)C(=O)c2ccccc2C1=O` [Hydrindantin] stands 95%.
With `CCCCCCCCCC=CCC1CC(=O)OC1=O` (stereo not drawn) [2-Dodecen-1-ylsuccinic anhydride], the “% TAR REMOVAL” value stood at 98.2%.
Next, `CC(=O)O[C@H]1C(=O)OC(=O)[C@@H]1OC(C)=O` [(+)-Diacetyl-1-tartaric anhydride]: 32.1%.
